The results in this text go back to US7618984B2, “Sulfonamide compound” (Asahi Kasei Pharma Corporation, priority 2005, dated 2009).

Structures can show the parent of a compound that is named as a salt.

In experiment [1] the test system is rabbit intraocular pressure. The experiment in a line: Rabbit intraocular pressure reduction enhancing action, combination use (Test Example 6-1). It is filed as in vivo, Japanese white rabbit. The note with it: 50 μL, difference of left and right eyes, 2, 4 and 6 hours. The procedure:
However, the effect is not limited to the 19-1 compound, and the ophthalmic solution concentration of the 19-1 compound is not limited to those used in this test example. Moreover, as for the test compound used for combination use, similar effect can be obtained also with the compounds of the present invention represented with the example numbers mentioned in Test Example 2.
As a test compound, the 19-1 compound was dissolved in physiological saline, and the solution was neutralized by addition of sodium hydroxide (pH 7.0 to 8.0) to prepare a 0.01 weight % aqueous solution (19-1 compound aqueous solution). As the drugs for combination use, isopropyl unoprostone (trade name: Rescula, Santen Pharmaceutical) was used as a prostaglandin-related drug, and brinzolamide hydrochloride (trade name: Azopt, Alcon Japan) was used as […], as the marketed formulations as they were.
A Japanese white rabbit having a body weight of about 2 kg was placed in a positioner and naturalized for one week before the experiment. An opthalmologic local anesthesant (Benoxil) was administered to both eyes, and then intraocular pressure before instillation was measured by using a tonometer (Classic 30, Solan). A test aqueous solution or the drug for combination use was administered to the left eye, and the right eye was not treated (control eye). The test groups consisted of (1) control group, (2) group instilled only with the 19-1 compound aqueous solution (single drug group 1), (3) group instilled only with the drug for combination use (single drug group 2), and (4) group instilled with the drug for combination use and the 19-1 compound aqueous solution (combination use group), and six rabbits were used for each group. As for the rabbits of these groups, 50 μL of physiological saline was first instilled to the control group, single drug group 1, and single drug group 2, and the drug for combination use was first instilled in the same volume to the combination use group. […] The intraocular pressure thereafter was measured for each group 2, 4 and 6 hours after the second administration of the test compound, and the difference of the measured values for the left and right eyes at each measurement time was considered an intraocular pressure reduction value of each group. The largest difference of the intraocular pressure values for the left and right eyes among those of the measured values of the measurement times was considered the maximum intraocular pressure reduction value (max ΔIOP) of each drug group.

Another experiment has as its system neutrophils. Kind of experiment: Neutrophil migration inhibitory action, Boyden Chamber, FMLP (Test Example 3). The following applies: 0.5 h, human neutrophils, FMLP 1 μM, 37° C., 30 minutes, read-out: IC50, compound concentration providing a migration inhibition ratio of 50%. It is filed as cell-based. The method, then: Neutrophils were isolated from 50 to 100 ml of peripheral blood collected from healthy human donors by the method described in Test Example 1 to obtain a cell suspension (8×10^6/ml). Subsequently, solutions of a test compound at various concentrations were introduced into wells of a 96-well plate in a volume of 125 μl per well, the cell suspension of an equivalent volume was added to it and the plate was preincubated at room temperature for 5 minutes. During the preincubation, FMLP (1 μM, Sigma) solution was added to the lower chamber to set Boyden Chamber, the preincubated cell suspension was added to the upper chamber in a volume of 200 μl per well, and the cells were allowed to migrate at 37° C. under 5% carbon dioxide for 30 minutes. The filter after the migration was collected, and the non-migrated cells adhered to the surface that faced the upper chamber were carefully wiped off. Then, the migrated cells on the back surface were stained with DifQuick dye solution (International Reagents), washed with water and dried, and then absorbance was measured at 595 nm. The inhibition ratio against migration (%) of a test compound was calculated by using the following equation: Migration inhibition ratio(%)=(1−Absorbance of the group with addition of test compound/Absorbance of the group without addition of test compound)×100
Further, the migration inhibitory ratio was calculated with changing the test compound concentration, and a compound concentration providing an inhibition ratio of 50% was obtained as IC50.

In experiment [2] the test system is rabbit normal intraocular pressure. The experiment in a line: Intraocular pressure reducing action (Test Example 2). It is filed as in vivo, Japanese white rabbit. The following applies: Oryctolagus cuniculus, topical; 3 mM aqueous solution, 50 μl to the left eye; measured after 2, 4 and 6 hours; read-out: intraocular pressure reducing degree (max ΔIOP / intraocular pressure value immediately before administration × 100). The method, then:
A Japanese white rabbit having a body weight of about 2 kg was placed in a positioner and naturalized for one week before the experiment. An opthalmologic local anesthesant (Benoxil) was administered to both eyes, and then intraocular pressure was measured by using a tonometer (Classic 30, Solan). A 3 mM aqueous solution of a test compound was administered in a volume of 50 μl to the left eye, and the right eye was not treated (control eye). The intraocular pressure values were measured for the left and right eyes immediately before, and 2, 4 and 6 hours after the administration of the aqueous solution of the test compound, and the difference of the measured values for the left and right eyes was considered an intraocular pressure reduction value of the test medicament at each measurement time. The largest difference of the values for the left and right eyes among the measured values at the measurement times (after 2, 4 and 6 hours) was considered the maximum intraocular pressure reduction value (max ΔIOP) of each test medicament. The intraocular pressure reducing degree representing the intraocular pressure reducing action of each test medicament was calculated according to the following formula. Since rabbits show significant daily variation of intraocular pressure, daily variation is added when change of intraocular pressure is measured over time, and the intraocular pressure reducing action may be overestimated. Therefore, we used this calculation method of intraocular pressure reduction value in order to minimize the influence of the variation. Intraocular pressure reducing degree (%)=(max ΔIOP/Intraocular pressure value immediately before administration)×100

For experiment [3], the system named is phosphorylation of myosin regulatory light chain. The experiment in a line: Inhibitory action on phosphorylation of myosin regulatory light chain (Test Example 1). It is filed as cell-based. The following applies: Neutrophil, 5 min; human peripheral blood neutrophils, 25° C. for 5 minutes; read-out: IC50, compound concentration providing a phosphorylation inhibition ratio of 50% (myosin regulatory light chain). The procedure: A volume of 50 to 100 ml of peripheral blood collected from healthy volunteers was centrifuged by using Mono-Poly separator solution (Dainippon Pharmaceutical) to prepare a neutrophil containing fraction. The neutrophils were washed with PBS(−) and resuspended in Hanks' Balanced Salt Solution (HBSS+, Gibco) to prepare a cell suspension (8×10^6/ml). The cell suspension was diluted to 5×10^6/ml, introduced into Eppendorf tubes in a volume of 0.4 ml each, then 0.1 ml each of solutions of a test compound at various concentrations were added to the suspension and allowed to react at 25° C. for 5 minutes. After the reaction, 0.1 ml of trichloroacetic acid solution was added to each reaction mixture, the reaction mixture was gently shaken and centrifuged at 12,000 rpm (4° C., 5 minutes), and the supernatant was removed. Subsequently, 3 μl of 1 M Tris solution was added to the residue, the mixture was further mixed with 50 μl of extraction buffer (8 M urea, 0.02% 2-mercaptoethanol, 0.002% bromophenol blue) and left stand at room temperature for 1 hour. Then, the reaction mixture was loaded on a spin column (0.45 μm, Millipore) to remove the insoluble solids and a sample buffer for SDS polyacrylamide gel electrophoresis (25 mM, Tris-HCl pH 6.8, 2.5% 2-mercaptoethanol, 2% sodium dodecylsulfate, 5% sucrose, 0.002% bromophenol blue as final concentrations) was added, and 10 μl of each sample was subjected to electrophoresis.
The gel after the electrophoresis was blotted on a nitrocellulose membrane (BioRad), blocked with 5% skim milk, and reacted successively with antibodies pLC1 (Sakurada K. et al, Am. J. Physiol., 274, C1563-C1572 (1998)), which specifically recognize the phosphorylated myosin regulatory light chain, and donkey anti-mouse IgG (Chemicon) conjugated with horseradish peroxidase. The band of the phosphorylated myosin regulatory light chain was detected on a film by using ECL Plus Kit (Amersham Pharmacia Biotech). This band was subjected to quantification using a densitometer. By using this value, the inhibitory ratio (%) for phosphorylation of the myosin regulatory light chain was calculated by using the following equation. Phosphorylation inhibition ratio(%)=1−(Band intensity of phosphorylated myosin regulatory light chain with addition of the test compound/Band intensity of phosphorylated myosin regulatory light chain without addition of the test compound)×100
Further, the phosphorylation inhibition ratio was calculated with changing the concentrations of the test compound, and a compound concentration providing an inhibition ratio of 50% was obtained as IC50.

For `CCCCCCCC(=O)CC[C@@H]1[C@@H](C/C=C\CCCC(=O)OC(C)C)[C@@H](O)C[C@H]1O` [isopropyl unoprostone, reference compound], the “Max ΔIOP (maximum intraocular pressure reduction value), Table 3” value in experiment [1] (0.01 weight % 19-1 compound aqueous solution and/or isopropyl unoprostone (Rescula)) came to 4.4 mmHg.

Turning to `N[C@@H]1CCN(S(=O)(=O)c2cccc3cncc(Br)c23)C1` [Example 1-2, (R)-3-Amino-1-(4-bromo-5-isoquinolinesulfonyl)pyrrolidine], the IC50 in the experiment with neutrophils was 10 to 40 µM; in experiment [3], below 10 µM. Also, the inhibition in vivo at 3000 µM in experiment [2] was at least 20%.

Turning to `CCN[C@H]1CN(CCCOC)S(=O)(=O)c2sc(S(N)(=O)=O)cc21` [brinzolamide hydrochloride, reference compound], in experiment [1] (0.01 weight % 19-1 compound aqueous solution and/or brinzolamide hydrochloride (Azopt)), the “Max ΔIOP (maximum intraocular pressure reduction value), Table 2” value is 2.3 mmHg.

For the compound `CN[C@@H]1CCN(S(=O)(=O)c2cccc3cncc(C)c23)C1` [Example 27, (R)-3-(Methylamino)-1-(4-methyl-5-isoquinolinesulfonyl)pyrrolidine], the IC50 with neutrophils is 10 to 40 µM; in experiment [3] it was below 10 µM. Also, the inhibition in vivo at 3000 µM in experiment [2] fell in the range of 5 to 10%.

Consider `Cc1cncc2cccc(S(=O)(=O)N3CC(N)C3)c12` [Example 26, 3-Amino-1-(4-methyl-5-isoquinolinesulfonyl)azetidine], for which the IC50 in the experiment on neutrophils is 10 to 40 µM; in experiment [3], below 10 µM. In addition, the inhibition in vivo at 3000 µM in experiment [2] was 5 to 10%.

`CN[C@H]1CCN(S(=O)(=O)c2cccc3c(O)ncc(Cl)c23)C1` [Example 36-1, (S)-1-(1-Hydroxy-4-chloro-5-isoquinolinesulfonyl)-3-(methylamino)pyrrolidine]: the IC50 (in the experiment with neutrophils; in experiment [3]) was below 10 µM throughout. Besides, the inhibition in vivo at 3000 µM in experiment [2] lay in the range of 10 to 20%.

For the compound `Cc1cncc2cccc(S(=O)(=O)N3CC[C@H](N)C3)c12` [Example 8-1, (S)-3-Amino-1-(4-methyl-5-isoquinolinesulfonyl)pyrrolidine], the IC50 (in the experiment on neutrophils; in experiment [3]) was below 10 µM throughout. Further, in experiment [2], the inhibition in vivo at 3000 µM is at least 20%.

For the compound `N[C@H]1CCN(S(=O)(=O)c2cccc3c(O)ncc(Br)c23)C1` [Example 7-1, (S)-3-Amino-1-(1-hydroxy-4-bromo-5-isoquinolinesulfonyl)pyrrolidine], the IC50 (in the experiment on neutrophils; in experiment [3]) was below 10 µM in each case. For the same compound, the inhibition in vivo at 3000 µM in experiment [2] is at least 20%.

Turning to `O=S(=O)(c1cccc2cncc(Br)c12)N1CC[C@H](NCc2ccco2)C1` [Example 4-1, (S)-3-(2-Furylmethyl)amino-1-(4-bromo-5-isoquinolinesulfonyl)pyrrolidine], the IC50 (with neutrophils; in experiment [3]) was below 10 µM throughout. The inhibition in vivo at 3000 µM in experiment [2] is at least 20%.

Turning to `C#Cc1cncc2cccc(S(=O)(=O)N3CC[C@H](N)C3)c12` [Example 10-1, (S)-3-Amino-1-(4-ethynyl-5-isoquinolinesulfonyl)pyrrolidine], the IC50 in the experiment with neutrophils is 10 to 40 µM; in experiment [3], below 10 µM. The inhibition in vivo at 3000 µM in experiment [2] is at least 20%.

`C=Cc1cncc2cccc(S(=O)(=O)N3CC[C@H](N)C3)c12` [Example 9-1, (S)-3-Amino-1-(4-vinyl-5-isoquinolinesulfonyl)pyrrolidine]: the IC50 with neutrophils was 10 to 40 µM; in experiment [3] it was below 10 µM. The inhibition in vivo at 3000 µM in experiment [2] is at least 20%.
